Source: US20170354669A1, “DISRUPTION OF THE INTERACTION BETWEEN AMYLOID BETA PEPTIDE AND DIETARY LIPIDS” (The Trustees of Columbia University in the City of New York, priority 2016, published 2017)
“And” between values parts separate entries of the source, which are not always exact repeats. Equal entries are not always repeated. “Also recorded” adds a separate entry of the source.

Key:
[1] = biological target: T1, Aβ42-FAM bound lipids containing 22:6 (Homo sapiens, UniProt P05067); assay: Competition of Aβ42-FAM binding to plate-bound 22:6 lipid; settings: competitor peptide 5×, 1 μM; FIG. 1C
T1 construct: SensoLyte Fluorescent β-Amyloid1-42 Sampler Kit, Anaspec; purchased Anaspec
Description: Scrambled Aβ or unlabeled Aβ42 peptides (Anaspec) were diluted to 100 μM as above and then diluted in SuperBlock Blocking buffer to 1 μM, incubated for 1 hour at room temperature. Plates were washed and FAM fluorescence was read as above. Lipid containing long chain polyunsaturated fatty acid 22:6, docosahexaenoic acid (DHA) and an amine containing headgroup, phosphatidylethanoloamine (PE) was bound to maleic anhydride activated plates which bind to free primary amine functional groups at neutral and alkaline pH. All binding and washing steps were done in PBS, PBST and SuperBlock PBS to maintain pH at 7.2. A control acyl chain lipid hypothesized not to bind to Aβ peptide was 18:0, stearic acid containing PE (di18:0). After lipids were bound and unreacted binding sites were blocked using SuperBlock, Aβ42 peptide fluorescently tagged with FAM (Anaspec) was incubated with lipid bound wells. […] The dissociation constant Kd was calculated to be 300 nM. Specific binding was calculated by subtracting background binding of di18:0 PE.

Aβ42 = biological target: T2, Aβ42 (Homo sapiens, UniProt P05067); assay: Lipid binding assay: Aβ42-FAM binding to plate-bound amine-containing lipids
T2 construct: SensoLyte Fluorescent β-Amyloid1-42 Sampler Kit, Anaspec; purchased Anaspec
Source text: Maleic Anhydride Activated plates (Pierce Amine-binding, 96-well plates, Thermo Scientific) were washed in wash buffer (PBS: Phosphate buffered saline, 0.15 M sodium chloride, pH 7.2 containing 0.05% Tween-20 Detergent, PBST, Thermo Scientific) 4 times to activate reactive maleic anhydride functional group. Amine containing lipids were PE containing docosahexaenoyl (22:6) and stearoyl (18:0) acyl chains (22:6/18:0 PE) or two stearoyl acyl chains (di18:0 PE) were from Avanti Polar Lipids. 22:6/18:0 PE was obtained in chloroform, dried down and solubilized at 200 pmol/μL in 1% n-octylglucoside (NOG, Santa Cruz) in PBS and sonicated for […]. di18:0 PE was obtained as a powder, solubilized at 200 pmol/μl in 1% NOG and bath sonicated for 5 minutes. Lipids were incubated at a volume of 100 μL in activated maleic anhydride plates at increasing concentration at 4° C. in PBS/1% NOG. After incubation, lipids were removed and SuperBlock Blocking Buffer/PBS (Thermo) was added at a volume of […] for 1 hour at room temperature. Plates were then washed 4 times with PBST (Thermo Scientific). Fluorescently labeled amyloid β-peptide (SensoLyte Fluorescent β-Amyloid1-42 Sampler Kit, Anaspec) was prepared with […], Component B, Solvent for β-amyloid (Anaspec) as per the commercial protocol and then diluted in deionized water to a concentration of 100 μM. […] Plates were then washed 4 times in PBST and fluorescence was detected using Tecan Infinite 200 at wavelengths 494/521 (excitation, emission) using the Optimal Gain setting.
Assays were done in triplicate wells and reported as mean+/−standard error. Binding kinetics and best fit curve fitting were accomplished using Prism Graphpad software.
Lipid containing long chain polyunsaturated fatty acid 22:6, docosahexaenoic acid (DHA) and an amine containing headgroup, phosphatidylethanoloamine (PE) was bound to maleic anhydride activated plates which bind to free primary amine functional groups at neutral and alkaline pH. […] Specific binding was calculated by subtracting background binding of di18:0 PE.

APPsw+ mice [2] = assay: Novel object recognition (NOR) training and testing, activity and exploration; assay type: in vivo
Description: FIGS. 6A-6B. 30 days treatment with escalating dose SDPC. (A) Mice were placed in a box with two identical objects for 10 minutes on the training day 1. […] One object was replaced with a novel object for testing (NOD index). The same data is shown to scale in FIG. 6B (Testing (immediate)). Twenty-four hours later (Testing (24 hours)), mice were placed in the same context with one of the original identical objects (Familiar) and a second novel object (Novel). The time spent with each object was recorded. (B) For testing, novel object discrimination (NOD index) is assessed using the equation [(time novel)/(time familiar+time novel)]. NOD index of 0.5 represents equal time with each object. NOD>0.5 represents more time spent with novel object. Standard error is shown for means of Saline treated APPsw+(control) (n=4); SDPC treated APPsw+ (n=5) and wild type receiving no treatment (n=4). Significance was determined for […] using Student's t-test. SDPC was obtained from Avanti Polar Lipids (850472C) in chloroform, dried under vacuum conditions and resuspended in 0.9% saline (0.9% sodium chloride injection, USP, NDC 0409-7983-61, Hospira) containing 0.2% (weight:volume) methyl cellulose (average Mn 40,000, viscosity: 400 cP, CAS 9004-67-5, Sigma-Aldrich 274429) to aid in solubilization. A control solution of 0.9% saline containing 0.2% methyl cellulose was prepared at the same time without SDPC. A concentration of 3 mg/ml was used for doses 1-15 and 12 mg/ml was used for doses 16-18 (FIG. 3). Brief (3-5 minutes) bath sonication was used to improve solubility of 12 mg/ml concentration. Mice were treated for 10 days at a low dose of SDPC intranasally administered 2.5 uL each nostril (5 μL total dose) for 0.5 mg/kg every other day assuming average mouse weight of 30 g (0.03 kg) (FIG. 3). After 10 days, dose was escalated to 2 mg/kg every other day for an additional 19 days (total treatment time […]). Doses 16-18 were administered daily. Non-invasive behavioral testing using novel object recognition (118) and Nesting behavior (114) were used to assess behavioral function. Deficits were expected in APPsw+ (Tg) mice and compared to wild type littermates of the same age (13-14 months). APPsw+ mice were treated (Tx) with either control solution of 0.9% saline containing 0.2% methyl cellulose [Saline] or SDPC in 0.9% saline containing 0.2% methyl cellulose [SDPC]. […] Significant changes were seen using Student's t-test comparing SDPC and wild type (non-treated) [WT Ntx] and comparing saline and WT Ntx, but not when comparing SDPC and saline groups likely due to small sample size (n=4-5).

APPsw+ mice [3] = assay: Open Field testing; assay type: in vivo; settings: 10 days intranasal low dose, following NOR testing; FIG. 4D
Description: FIGS. 4A-4D. 10 days treatment with low dose SDPC. (A) After 10 days treatment (Tx) with low dose phosphatidylcholine (PC) containing docosahexaenoyl (22:6) and stearoyl (18:0) acyl chains, 18:0-22:6 PC; 1-stearoyl-2-docosahexaenoyl-sn-glycero-3-phosphocholine (CAS Number 59403-52-0; Synonyms: 1-octadecanoyl-2-(4Z,7Z,10Z,13Z,16Z,19Z-docosahexaenoyI)-sn-glycero-3-phosphocholine and PC(18:0/22:6(4Z,7Z,10Z,13Z,16Z,19Z))) (SDPC) intranasally, nesting score was assessed as described before (114). The number of nestlettes (from 3 initially placed in cage) was estimated and exact weight of remaining nestlettes was determined in grams (g) from initial 3 nestlettes (approximately 2 g). (B) Activity during novel object recognition (NOR) training was assessed after 10 days intranasal SDPC. Grooming behavior, free rearing, wall rearing and center crossing events are shown and were summed in total events. (C) Time spent with each identical object during NOR training. (D) Activity during Open Field testing 24 hours after NOR training (note, no difference in novel object discrimination (NOD) index was found. Standard error is shown for means of Saline treated APPsw+(control) (n=4); SDPC treated APPsw+ (n=5) and wild type receiving no treatment (n=4). Significance was determined for […] using Student's t-test. […]

APPsw+ mice [4] = assay: Nesting behavior after intranasal treatment; assay type: in vivo; settings: 10 days intranasal low dose 0.5 mg/kg every other day, vs saline treated APPsw+, FIG. 4A
Description: SDPC was obtained from Avanti Polar Lipids (850472C) in chloroform, dried under vacuum conditions and resuspended in 0.9% saline (0.9% sodium chloride injection, USP, NDC 0409-7983-61, Hospira) containing 0.2% (weight:volume) methyl cellulose (average Mn 40,000, viscosity: 400 cP, CAS 9004-67-5, Sigma-Aldrich 274429) to aid in solubilization. A control solution of 0.9% saline containing 0.2% methyl cellulose was prepared at the same time without SDPC. A concentration of 3 mg/ml was used for doses 1-15 and 12 mg/ml was used for doses 16-18 (FIG. 3). Brief (3-5 minutes) bath sonication was used to improve solubility of 12 mg/ml concentration. Mice were treated for 10 days at a low dose of SDPC intranasally administered 2.5 uL each nostril (5 μL total dose) for 0.5 mg/kg every other day assuming average mouse weight of 30 g (0.03 kg) (FIG. 3). After 10 days, dose was escalated to 2 mg/kg every other day for an additional 19 days (total treatment time […]). Doses 16-18 were administered daily. Non-invasive behavioral testing using novel object recognition (118) and Nesting behavior (114) were used to assess behavioral function. Deficits were expected in APPsw+ (Tg) mice and compared to wild type littermates of the same age (13-14 months). […]

APPsw+ mice [5] = assay: Novel object recognition (NOR) training and testing, activity and exploration; assay type: in vivo; settings: 10 days intranasal low dose

How did the “competitive disruption of Aβ42-FAM binding to 22:6 lipid” value [1] turn out when “unlabeled Aβ42 peptide: unlabeled Aβ42 peptide (Anaspec) used as competitor” was run?
The value was “competitively disrupted”.

Which Kd (Aβ42; read-out: dissociation constant Kd of Aβ binding to DHA) does the source give for `CC/C=C\C/C=C\C/C=C\C/C=C\C/C=C\C/C=C\CCC(=O)O` [DHA, docosahexaenoic acid] here?
Its Kd is ~300 nM and 300 nM.

How did the “discrimination of one displaced identical object (hippocampal function)” value (APPsw+ mice [2]; 30 days escalating dose, training day 2, FIG. 6A) turn out when `CC/C=C\C/C=C\C/C=C\C/C=C\C/C=C\C/C=C\CCC(=O)O[C@H](COC(=O)CCCCCCCCCCCCCCCCC)COP(=O)([O-])OCC[N+](C)(C)C` [SDPC, 1-stearoyl-2-docosahexaenoyl-sn-glycero-3-phosphocholine] was run?
Its value is “no discrimination was determined”.

And the “number of wall rears and total activity events” value (APPsw+ mice [2]; 30 days intranasal escalated dose (to 2 mg/kg), SDPC vs saline treated APPsw+, FIG. 5)?
The value was “significant improvement”.

And the “NOR deficits: time spent with a novel object” value (APPsw+ mice [2]; 30 days intranasal escalated dose, FIG. 6)?
The value was “significant amelioration”.

And the “novel object discrimination index (NOD index)” value (APPsw+ mice [2]; 30 days intranasal escalated dose, FIG. 6B)?
The value was “significant changes were not observed; also recorded: trend for amelioration”.

What about the “activity in the open field test” value (APPsw+ mice [3]) of the same molecule?
The value was “continued improvement of activity level; also recorded: restored to the level of wild type non-treated mice”.

What about the nesting behavior (APPsw+ mice [4]) of the same molecule?
Its nesting behavior is “trend toward improvement; also recorded: non-significant trend for improvement”.

And the “NOR discrimination (NOD index) 24 hours after training” value (APPsw+ mice [5])?
The value was “no discrimination was found; also recorded: no difference”.

What about the “activity during NOR training (wall rearing, free rearing, total activity level)” value (APPsw+ mice [5]; vs saline treated APPsw+, FIG. 4B) of the same molecule?
Its value is “trend toward improvement; also recorded: non-significant trend for improvement”.

And the “exploration: time spent with identical objects during NOR training” value (APPsw+ mice [5]; FIG. 4C)?
The value was “trend toward improved exploratory behavior; also recorded: non-significant trend toward exploration activity”.

For `CCCCCCCCCCCCCCCCCC(=O)OC[C@H](COP(=O)(O)OCCN)OC(=O)CCCCCCCCCCCCCCCCC` [di18:0 PE, reference compound], which “binding of Aβ42-FAM to plate-bound lipid” value (Aβ42; FIGS. 1A and 1B, di18:0 at concentrations 10,000 pmol/well and below) is on record?
The value was “very low binding activity”.

And the “binding of Aβ42-FAM to plate-bound lipid at the highest concentrations” value (Aβ42; only at the highest concentrations of lipid)?
The value was “modest binding”.
